Biological target: T1, Tyrosinase (Agaricus bisporus, UniProt O42713)
T1 sequence (O42713 whole entry): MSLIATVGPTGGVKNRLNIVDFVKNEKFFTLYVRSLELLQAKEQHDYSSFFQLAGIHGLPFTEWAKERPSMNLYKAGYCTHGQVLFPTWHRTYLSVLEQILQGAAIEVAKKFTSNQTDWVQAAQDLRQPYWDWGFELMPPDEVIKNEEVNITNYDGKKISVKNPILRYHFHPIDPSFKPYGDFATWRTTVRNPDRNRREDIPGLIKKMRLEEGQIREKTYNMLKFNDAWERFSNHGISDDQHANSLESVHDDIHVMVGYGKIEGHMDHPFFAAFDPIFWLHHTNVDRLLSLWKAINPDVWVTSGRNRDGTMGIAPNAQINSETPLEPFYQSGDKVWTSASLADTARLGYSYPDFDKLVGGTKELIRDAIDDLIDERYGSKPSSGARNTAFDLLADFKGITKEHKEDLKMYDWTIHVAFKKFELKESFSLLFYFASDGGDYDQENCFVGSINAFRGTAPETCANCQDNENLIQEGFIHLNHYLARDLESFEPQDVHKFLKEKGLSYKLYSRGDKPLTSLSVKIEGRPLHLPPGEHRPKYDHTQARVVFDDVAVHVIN
Test: Inhibition of mushroom tyrosinase using L-3,4- dihydroxyphenylalanine as substrate measured for 5 mins by spectrophotometric analysis

Row | IC50 | SMILES
1 | 1.36 mM | COc1ccc(-c2cc3cc(Br)cc(OC)c3oc2=O)cc1
2 | > 5 mM | COc1cc(Br)cc2cc(-c3ccccc3)c(=O)oc12
3 | 0.215 mM | O=c1oc2c(O)cc(Br)cc2cc1-c1ccc(O)cc1
4 | 2.07 mM | CCOc1cccc2cc(-c3ccccc3)c(=O)oc12
5 | 0.302 mM | O=c1oc2c(O)cc(Br)cc2cc1-c1ccccc1
6 | > 5 mM | CCOc1cccc2cc(-c3ccc(OC)cc3)c(=O)oc12
7 | > 5 mM | O=c1oc2c(O)cccc2cc1-c1ccccc1
8 | 1.3 mM | O=c1oc2c(O)cccc2cc1-c1ccc(O)cc1

Biological target: T1, Tyrosinase
Test: Non-competitive inhibition of mushroom tyrosinase using L-3,4- dihydroxyphenylalanine as substrate by Lineweaver-Burk double reciprocal plot analysis

Row | Ki | SMILES
9 | 189 µM | O=c1oc2c(O)cc(Br)cc2cc1-c1ccc(O)cc1

Biological target: T2, Tyrosinase (Homo sapiens, UniProt P14679)
T2 sequence (P14679 whole entry): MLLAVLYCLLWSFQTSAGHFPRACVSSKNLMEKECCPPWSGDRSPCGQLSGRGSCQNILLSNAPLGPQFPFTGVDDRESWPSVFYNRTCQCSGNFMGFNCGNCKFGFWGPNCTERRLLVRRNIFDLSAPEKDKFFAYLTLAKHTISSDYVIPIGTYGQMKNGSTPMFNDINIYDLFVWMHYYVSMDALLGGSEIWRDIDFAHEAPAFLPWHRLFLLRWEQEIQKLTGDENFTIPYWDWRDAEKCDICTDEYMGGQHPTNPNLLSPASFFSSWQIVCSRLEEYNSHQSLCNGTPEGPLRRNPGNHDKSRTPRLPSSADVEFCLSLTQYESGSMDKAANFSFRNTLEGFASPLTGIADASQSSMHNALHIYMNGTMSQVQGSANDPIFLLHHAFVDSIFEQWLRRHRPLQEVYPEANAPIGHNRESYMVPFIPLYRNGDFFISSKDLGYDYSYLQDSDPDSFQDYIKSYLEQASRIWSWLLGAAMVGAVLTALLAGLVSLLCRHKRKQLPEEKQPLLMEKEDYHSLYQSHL
Test: Inhibition of tyrosinase

Row | IC50 | SMILES
10 | 0.42 mM | O=c1ccc2ccc(O)cc2o1 [UMBELLIFERONE]
11 | > 10 mM | O=c1oc2cc(O)ccc2cc1-c1cc(O)cc(O)c1
12 | 3.68 mM | Oc1ccc(/C=C/c2cc(O)cc(O)c2)cc1 [RESVERATROL]
13 | > 10 mM | O=c1oc2cc(O)ccc2cc1-c1ccccc1

Source: ChEMBL document CHEMBL1777693, “New halogenated phenylcoumarins as tyrosinase inhibitors” (Bioorg Med Chem Lett, 2011)
